Assay results: patent US20230159510A1, “NOVEL PRMT5 INHIBITORS” (AMGEN INC., priority 2020, published 2023)
Like-named read-outs stand apart in the source and are kept apart here.

Key:
HCT116 WT cells = test: HCT116 proliferation assay, WT cells (CellTiter-Glo, 6 days); format: cell-based; details: read-out: Prolif_HCT116-WT IC50
In short: (§1)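 Seed cells in RPMI 1640 supplemented with 10% FBS and incubate overnight at 37° C under 5% CO2. Treat with serially diluted compound (threefold steps, 8 or 9 points, highest 1 or 10 µM) or DMSO alone, then quantify viability by luminescence.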

PRMT5/MEP50 = PRMT5/MEP50 (Homo sapiens, UniProt O14744); test: MTase-Glo methyl transferase assay, Method A (Histone H4 peptide, 1 µM MTA, 24 h pre-incubation); format: biochemical; parameters: made in house; details: read-out: PRMT5 MTase Glo Ki (nM, Meth. A)
Sequence of PRMT5/MEP50 (O14744 whole entry): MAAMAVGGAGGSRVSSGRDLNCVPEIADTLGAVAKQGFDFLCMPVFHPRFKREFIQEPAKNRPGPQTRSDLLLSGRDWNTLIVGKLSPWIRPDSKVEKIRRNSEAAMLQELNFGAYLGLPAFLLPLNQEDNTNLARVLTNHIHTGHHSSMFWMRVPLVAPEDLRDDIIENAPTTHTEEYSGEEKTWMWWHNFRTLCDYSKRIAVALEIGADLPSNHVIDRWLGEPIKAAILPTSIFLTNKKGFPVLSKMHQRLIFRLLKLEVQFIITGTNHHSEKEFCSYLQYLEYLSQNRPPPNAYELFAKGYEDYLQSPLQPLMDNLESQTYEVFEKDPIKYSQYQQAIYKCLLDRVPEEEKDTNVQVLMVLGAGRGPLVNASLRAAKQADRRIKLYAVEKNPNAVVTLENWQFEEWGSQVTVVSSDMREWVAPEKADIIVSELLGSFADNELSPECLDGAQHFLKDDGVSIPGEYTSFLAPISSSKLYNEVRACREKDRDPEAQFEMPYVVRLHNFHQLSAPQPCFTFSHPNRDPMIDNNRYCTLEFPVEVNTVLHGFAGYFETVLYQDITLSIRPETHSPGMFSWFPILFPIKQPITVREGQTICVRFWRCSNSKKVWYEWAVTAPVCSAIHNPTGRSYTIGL
Sequence of PRMT5/MEP50 (Q9BQA1 whole entry partner): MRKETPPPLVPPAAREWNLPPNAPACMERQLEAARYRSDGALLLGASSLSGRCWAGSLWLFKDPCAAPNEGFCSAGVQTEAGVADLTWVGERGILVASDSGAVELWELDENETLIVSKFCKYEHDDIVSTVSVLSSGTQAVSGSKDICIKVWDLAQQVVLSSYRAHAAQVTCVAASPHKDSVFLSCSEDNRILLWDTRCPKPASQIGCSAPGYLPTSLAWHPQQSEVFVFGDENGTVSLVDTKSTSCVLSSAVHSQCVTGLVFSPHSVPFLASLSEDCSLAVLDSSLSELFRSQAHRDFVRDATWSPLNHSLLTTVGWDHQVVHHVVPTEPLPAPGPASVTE
In short: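 Luminescent SAH detection (MTase-Glo) after a 2 h room-temperature methylation of 1 µM biotinylated H4 (1-21) peptide by 10 nM PRMT5/MEP50 with 5 µM SAM, in 50 mM Tris pH 8.0.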

HCT116 MTAP null cells = test: HCT116 proliferation assay, MTAP null cells (CellTiter-Glo, 6 days); format: cell-based; details: read-out: Protif_ HCT116-MTAP null IC50
In short: as §1

Row | Compound | IC50 (HCT116 WT cells; Homo sapiens, HCT-116, 144 h) [nM] | Ki (PRMT5/MEP50) [nM] | IC50 (HCT116 MTAP null cells; HCT116-MTAP null, 144 h) [nM] | IC50 (HCT116 WT cells) [nM] | IC50 (HCT116 MTAP null cells) [nM] | IC50 (HCT116 MTAP null cells; 144 h) [nM]
1 | Cc1cc2cc(C(=O)N(Cc3ccc(C(F)(F)F)cn3)C[C@H](C)C(F)(F)F)ccc2nc1N [Example 458, 2-amino-3-methyl-N-((2S)-3,3,3-trifluoro-2-methylpropyl)-N-((5-(trifluoromethyl)-2-pyridinyl)methyl)-6-quinolinecarboxamide] | > 10000 | 0.84 | – | – | – | 590
2 | C[C@H](c1ncccn1)N(Cc1ccc(C(F)F)cn1)C(=O)c1cnc2nc(N)c(Br)cc2c1 [Example 407, 7-amino-6-bromo-N-((5-(difluoromethyl)-2-pyridinyl)methyl)-N-((1R)-1-(2-pyrimidinyl)ethyl)-1,8-naphthyridine-3-carboxamide] | > 10000 | 0.11 | 291 | – | – | –
3 | Cc1cc2cc(C(=O)N(Cc3ccc(C(F)(F)F)cn3)Cc3ncccn3)ccc2nc1N [Example 338, 2-amino-3-methyl-N-(2-pyrimidinylmethyl)-N-((5-(trifluoromethyl)-2-pyridinyl)methyl)-6-quinolinecarboxamide] | > 10000 | 0.8 | – | – | – | 232
4 | Cc1cc2cc(C(=O)N(Cc3ccc(Br)nn3)[C@@H]3CCCn4ncnc43)ccc2nc1N [Example 416, 2-amino-N-((6-bromo-3-pyridazinyl)methyl)-3-methyl-N-((8R)-5,6,7,8-tetrahydro[1,2,4]triazolo[1,5-a]pyridin-8-yl)-6-quinolinecarboxamide] | 6650 | 0.17 | 262 | – | – | –
5 | C[C@H](c1ncccn1)N(Cc1ccc(C(F)(F)F)cn1)C(=O)c1cc2cc(Br)c(N)nc2cn1 [Example 419, 2-amino-3-bromo-N-((1R)-1-(2-pyrimidinyl)ethyl)-N-((5-(trifluoromethyl)-2-pyridinyl)methyl)-1,7-naphthyridine-6-carboxamide] | > 10000 | 0.16 | 271 | – | – | –
6 | Cc1cc2cc(C(=O)N(Cc3ccc(C(F)(F)F)cn3)[C@H]3CCCc4nccnc43)ccc2nc1N (single isomer, unassigned) [Example 522, 2-amino-3-methyl-N-((5 S)-5,6,7,8-tetrahydro-5-quinoxalinyl)-N-((5-(trifluoromethyl)-2-pyridinyl)methyl)-6-quinolinecarboxamide] | 5570 | 49.9 | 868 | – | – | –
7 | C[C@H](c1ccc(F)cc1F)N(Cc1ccc(C(F)(F)F)cn1)C(=O)c1cnc2nc(N)c(Br)cc2c1 [Example 346, 7-amino-6-bromo-N-((1R)-1-(2,4-difluorophenyl)ethyl)-N-((5-(trifluoromethyl)-2-pyridinyl)methyl)-1,8-naphthyridine-3-carboxamide] | 1580 | 0.04 | 81 | – | – | –
8 | Cc1cc2cc(C(=O)N(Cc3ccc(C(F)F)cn3)[C@H](C)c3ncccn3)cnc2nc1N [Example 409, 7-amino-N-((5-(difluoromethyl)-2-pyridinyl)methyl)-6-methyl-N-((1R)-1-(2-pyrimidinyl)ethyl)-1,8-naphthyridine-3-carboxamide] | > 10000 | 0.24 | 692 | – | – | –
9 | Cc1cc2cc(C(=O)N(Cc3ccc(C(F)(F)F)cn3)Cc3ncccc3F)ccc2nc1N [Example 320, 2-amino-N-((3-fluoro-2-pyridinyl)methyl)-3-methyl-N-((5-(trifluoromethyl)-2-pyridinyl)methyl)-6-quinolinecarboxamide] | 3480 | 0.28 | – | – | – | 79
10 | Cc1cc2cc(C(=O)N(Cc3ccc(N(C)C)nn3)[C@H](C)c3ncccn3)ccc2nc1N [Example 554, (R)-2-amino-N-((6-(dimethylamino)pyridazin-3-yl)methyl)-3-methyl-N-(1-(pyrimidin-2-yl)ethyl)quinoline-6-carboxamide] | 4280 | 0.07 | 122 | – | – | –
11 | Cc1cc2cc(C(=O)N(Cc3ccc(C(F)(F)F)cn3)CC(C)C)ncc2nc1N [Example 313, 2-amino-3-methyl-N-(2-methylpropyl)-N-((5-(trifluoromethyl)-2-pyridinyl)methyl)-1,7-naphthyridine-6-carboxamide] | > 10000 | 0.98 | – | – | – | 902
12 | C[C@H](c1ncccn1)N(Cc1ccc(C(F)(F)F)nn1)C(=O)c1ccc2nc(N)c(Cl)cc2c1 (single isomer, unassigned) [Example 445] | > 10000 | 0.53 | 549 | – | – | –
13 | C[C@H](c1ncccn1)N(Cc1ccc(C(F)(F)F)cn1)C(=O)c1ccc2nc(N)cc(Cl)c2c1 [Example 433, 2-amino-4-chloro-N-((1R)-1-(2-pyrimidinyl)ethyl)-N-((5-(trifluoromethyl)-2-pyridinyl)methyl)-6-quinolinecarboxamide] | 1170 | 1.26 | 821 | – | – | –
14 | Cc1cc2cc(C(=O)N(Cc3ccc(C(F)(F)F)cn3)[C@@H]3CCCc4nccnc43)ccc2nc1N (single isomer, unassigned) [Example 521] | 78 | 0.01 | 12 | – | – | –
15 | Cc1cc2cc(C(=O)N(Cc3ccc(S(=O)(=O)C4CC4)cn3)[C@H](C)c3ncccc3F)ccc2nc1N [Example 540, (R)-2-amino-N-((5-(cyclopropylsulfonyl)pyridin-2-yl)methyl)-N-(1-(3-fluoropyridin-2-yl)ethyl)-3-methylquinoline-6-carboxamide] | 6270 | 0.17 | 194 | – | – | –
16 | Cc1cc2cc(C(=O)N(Cc3ccc(C#N)cn3)[C@H](C)c3ncccc3F)c(F)cc2nc1N [Example 353, 2-amino-N-((5-cyano-2-pyridinyl)methyl)-7-fluoro-N-((1R)-1-(3-fluoro-2-pyridinyl)ethyl)-3-methyl-6-quinolinecarboxamide] | 1510 | 0.02 | 73 | – | – | –
17 | CC[C@H](c1ncccn1)N(Cc1ccc(C#N)cn1)C(=O)c1ccc2nc(N)c(C)cc2c1 (single isomer, unassigned) [Example 494] | 5420 | 0.66 | 194 | – | – | –
18 | Cc1cc2cc(C(=O)N(Cc3ccc(C(F)(F)F)cn3)[C@H](C)c3ncccc3F)ccc2nc1N [Example 385, 2-amino-N-((1R)-1-(3-fluoro-2-pyridinyl)ethyl)-3-methyl-N-((5-(trifluoromethyl)-2-pyridinyl)methyl)-6-quinolinecarboxamide] | 1310 | 0.08 | – | – | – | 55

Now from value to compound, other results behind:

Row | IC50 (HCT116 WT cells; Homo sapiens, HCT-116, 144 h) [nM] | Ki (PRMT5/MEP50) [nM] | IC50 (HCT116 MTAP null cells; HCT116-MTAP null, 144 h) [nM] | IC50 (HCT116 WT cells) [nM] | IC50 (HCT116 MTAP null cells) [nM] | Compound | IC50 (HCT116 MTAP null cells; 144 h) [nM]
19 | 2550 | 0.32 | 220 | – | – | CC(=O)N1CCC(c2ccc(CN(C(=O)c3ccc4nc(N)c(C)cc4c3)[C@H](C)c3ncccn3)nc2)CC1 [Example 552, N-((5-(1-acetyl-4-piperidinyl)-2-pyridinyl)methyl)-2-amino-3-methyl-N-((1R)-1-(2-pyrimidinyl)ethyl)-6-quinolinecarboxamide] | –
20 | 462 | 0.17 | 23 | – | – | Cc1cc2cc(C(=O)N(Cc3ccc(C(F)(F)F)cn3)[C@H](C)c3ncn(C)n3)ccc2nc1N (single isomer, unassigned) [Example 496] | –
21 | > 10000 | 0.34 | 434 | – | – | C[C@H](c1ncccn1)N(Cc1ccc(C2=CCOCC2)nn1)C(=O)c1ccc2nc(N)c(Cl)cc2c1 [Example 334, 2-amino-3-chloro-N-((6-(3,6-dihydro-2H-pyran-4-yl)-3-pyridazinyl)methyl)-N-((1R)-1-(2-pyrimidinyl)ethyl)-6-quinolinecarboxamide] | –
22 | 5090 | 0.07 | 275 | – | – | Cc1cc2cc(C(=O)N(Cc3ncc(C#N)cc3C)[C@H](C)c3ncccn3)ccc2nc1N [Example 549, 2-amino-N-((5-cyano-3-methyl-2-pyridinyl)methyl)-3-methyl-N-((1R)-1-(2-pyrimidinyl)ethyl)-6-quinolinecarboxamide] | –
23 | 3100 | 0.13 | 121 | – | – | C[C@H](c1ncccn1)N(Cc1ccc(C(F)(F)F)cn1)C(=O)c1cnc2nc(N)c(Br)cc2c1 [Example 512, 7-amino-6-bromo-N-((1R)-1-(2-pyrimidinyl)ethyl)-N-((5-(trifluoromethyl)-2-pyridinyl)methyl)-1,8-naphthyridine-3-carboxamide] | –
24 | 5110 | 0.17 | 302 | – | – | Cc1cc2cc(C(=O)N(Cc3ccc(C#N)cn3)[C@H](C)c3ccccn3)ccc2nc1N (single isomer, unassigned) [Example 473] | –
25 | 1370 | 2.5 | 53 | – | – | Cc1cc2cc(C(=O)N(Cc3ccc(N4CCC(F)(F)C4)cn3)[C@H](C)c3ncccn3)ccc2nc1N [Example 358, 2-amino-N-((5-(3,3-difluoro-1-pyrrolidinyl)-2-pyridinyl)methyl)-3-methyl-N-((1R)-1-(2-pyrimidinyl)ethyl)-6-quinolinecarboxamide] | –
26 | – | 0.17 | – | 3400 | 138 | Cc1cc2cc(C(=O)N(Cc3ccc4[nH]ncc4c3)Cc3ccc(C(F)(F)F)cn3)ccc2nc1N [Example 369, 2-amino-N-(1H-indazol-5-ylmethyl)-3-methyl-N-((5-(trifluoromethyl)-2-pyridinyl)methyl)-6-quinolinecarboxamide] | –
27 | 730 | 0.04 | 26 | – | – | Cc1cc2cc(C(=O)N(Cc3ccc(OC(F)(F)F)cn3)[C@H](C)c3ncccn3)ccc2nc1N (single isomer, unassigned) [Example 487] | –
